Read-outs that look alike come from different tables or passages of the source.
Key:
[1] = target: T1, CYP1A2 (Homo sapiens, UniProt P05177); assay: Inhibition of rCYP1A2 in microsomes from CYP450-overexpressing HEK293 cells; assay type: in vitro ADME; details: probe phenacetin; for Ki: rCYP1A2 microsomes
T1 sequence (P05177 1-516): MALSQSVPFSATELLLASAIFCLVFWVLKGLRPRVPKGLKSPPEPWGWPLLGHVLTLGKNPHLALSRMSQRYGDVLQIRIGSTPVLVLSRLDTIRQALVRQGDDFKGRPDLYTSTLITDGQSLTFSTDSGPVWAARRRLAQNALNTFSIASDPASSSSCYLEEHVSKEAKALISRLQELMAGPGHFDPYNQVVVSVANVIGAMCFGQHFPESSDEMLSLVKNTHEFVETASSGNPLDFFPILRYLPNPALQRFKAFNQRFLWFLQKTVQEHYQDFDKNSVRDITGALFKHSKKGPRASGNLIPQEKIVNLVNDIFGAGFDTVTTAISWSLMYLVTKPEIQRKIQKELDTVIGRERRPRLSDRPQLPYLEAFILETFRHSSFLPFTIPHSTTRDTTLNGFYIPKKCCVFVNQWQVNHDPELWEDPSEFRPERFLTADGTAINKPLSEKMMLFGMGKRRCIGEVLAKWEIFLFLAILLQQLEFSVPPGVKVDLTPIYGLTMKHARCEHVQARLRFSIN

[2] = target: T2, CYP2B6 (Homo sapiens, UniProt P20813); assay: Inhibition of rCYP2B6 in microsomes from CYP450-overexpressing HEK293 cells; assay type: in vitro ADME; details: for IC50 / Ki: probe bupropion; for inhibition of activity against efavirenz: probe efavirenz (Supplemental Table 2)
T2 sequence (P20813 1-491): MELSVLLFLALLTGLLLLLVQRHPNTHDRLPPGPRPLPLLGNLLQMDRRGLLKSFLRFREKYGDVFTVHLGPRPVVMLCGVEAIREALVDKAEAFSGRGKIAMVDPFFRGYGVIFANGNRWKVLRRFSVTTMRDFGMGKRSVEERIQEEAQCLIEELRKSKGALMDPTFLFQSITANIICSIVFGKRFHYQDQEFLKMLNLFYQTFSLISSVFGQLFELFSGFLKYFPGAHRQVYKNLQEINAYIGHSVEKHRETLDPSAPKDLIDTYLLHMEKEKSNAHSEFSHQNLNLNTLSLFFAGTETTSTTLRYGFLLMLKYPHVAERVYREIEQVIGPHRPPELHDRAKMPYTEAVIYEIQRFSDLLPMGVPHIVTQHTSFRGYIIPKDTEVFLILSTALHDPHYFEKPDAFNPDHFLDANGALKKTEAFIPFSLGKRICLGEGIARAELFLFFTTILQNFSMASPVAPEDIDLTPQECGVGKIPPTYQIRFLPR

[3] = target: T3, CYP2E1 (Homo sapiens, UniProt P05181); assay: Inhibition of rCYP2E1 in microsomes from CYP450-overexpressing HEK293 cells; assay type: in vitro ADME; details: for IC50 / Ki: probe chlorzoxazone; for decrease in activity: CYP2E1
T3 sequence (P05181 whole entry): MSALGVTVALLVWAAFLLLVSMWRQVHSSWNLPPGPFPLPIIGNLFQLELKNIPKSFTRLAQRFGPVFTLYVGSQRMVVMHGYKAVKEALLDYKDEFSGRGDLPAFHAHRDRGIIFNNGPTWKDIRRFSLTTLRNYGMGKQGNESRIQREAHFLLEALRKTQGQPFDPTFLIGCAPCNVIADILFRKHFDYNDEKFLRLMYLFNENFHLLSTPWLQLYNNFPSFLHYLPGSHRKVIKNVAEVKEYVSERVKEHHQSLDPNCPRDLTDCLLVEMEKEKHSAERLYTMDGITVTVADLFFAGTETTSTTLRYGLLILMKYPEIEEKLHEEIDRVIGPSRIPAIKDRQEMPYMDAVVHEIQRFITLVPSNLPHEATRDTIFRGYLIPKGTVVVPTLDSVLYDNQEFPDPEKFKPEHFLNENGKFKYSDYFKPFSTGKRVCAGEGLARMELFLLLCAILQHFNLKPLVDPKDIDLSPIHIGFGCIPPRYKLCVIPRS

[4] = target: T1, CYP1A2; assay: Inhibition of CYP1A2 probe; assay type: in vitro ADME; details: for IC50: probe phenacetin; for Ki: probe phenacetin (CYP1A2)
[5] = target: T2, CYP2B6; assay: Inhibition of CYP2B6 probe; assay type: in vitro ADME; details: for IC50: probe bupropion; for Ki: probe bupropion (CYP2B6)
[6] = target: T3, CYP2E1; assay: Inhibition of CYP2E1 probe; assay type: in vitro ADME; details: for IC50: probe chlorzoxazone; for Ki: probe chlorzoxazone (CYP2E1)
[7] = target: T1, CYP1A2; assay: IC50 shift study; assay type: in vitro ADME
[8] = target: T2, CYP2B6; assay: IC50 shift study; assay type: in vitro ADME
[9] = target: T3, CYP2E1; assay: IC50 shift study; assay type: in vitro ADME
[10] = Unbound fraction in incubation; assay type: in vitro ADME; details: human, human liver microsomes in buffer
[11] = target: CYP2C9 (Homo sapiens, UniProt P11712); details: for inhibition of activity against S-warfarin: rCYP2C9 microsomes, probe S-warfarin (Supplemental Table 2)
Sequence of CYP2C9 (P11712 whole entry): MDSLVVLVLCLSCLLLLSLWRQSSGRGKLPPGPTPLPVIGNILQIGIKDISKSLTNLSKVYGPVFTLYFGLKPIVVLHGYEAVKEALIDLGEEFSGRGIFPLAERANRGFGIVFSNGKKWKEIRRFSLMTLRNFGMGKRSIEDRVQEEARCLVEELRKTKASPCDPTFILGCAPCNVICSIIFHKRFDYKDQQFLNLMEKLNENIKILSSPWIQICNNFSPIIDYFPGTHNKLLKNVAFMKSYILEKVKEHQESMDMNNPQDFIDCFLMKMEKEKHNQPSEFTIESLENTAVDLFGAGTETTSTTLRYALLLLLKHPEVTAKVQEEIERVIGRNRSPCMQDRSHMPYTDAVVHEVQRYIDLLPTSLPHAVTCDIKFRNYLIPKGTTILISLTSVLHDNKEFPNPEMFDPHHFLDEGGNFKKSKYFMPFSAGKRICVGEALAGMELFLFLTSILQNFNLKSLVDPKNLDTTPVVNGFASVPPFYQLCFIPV

[12] = target: CYP2D6 (Homo sapiens, UniProt P10635); details: rCYP2D6 microsomes; probe bufuralol (Supplemental Table 2)
Sequence of CYP2D6 (P10635 whole entry): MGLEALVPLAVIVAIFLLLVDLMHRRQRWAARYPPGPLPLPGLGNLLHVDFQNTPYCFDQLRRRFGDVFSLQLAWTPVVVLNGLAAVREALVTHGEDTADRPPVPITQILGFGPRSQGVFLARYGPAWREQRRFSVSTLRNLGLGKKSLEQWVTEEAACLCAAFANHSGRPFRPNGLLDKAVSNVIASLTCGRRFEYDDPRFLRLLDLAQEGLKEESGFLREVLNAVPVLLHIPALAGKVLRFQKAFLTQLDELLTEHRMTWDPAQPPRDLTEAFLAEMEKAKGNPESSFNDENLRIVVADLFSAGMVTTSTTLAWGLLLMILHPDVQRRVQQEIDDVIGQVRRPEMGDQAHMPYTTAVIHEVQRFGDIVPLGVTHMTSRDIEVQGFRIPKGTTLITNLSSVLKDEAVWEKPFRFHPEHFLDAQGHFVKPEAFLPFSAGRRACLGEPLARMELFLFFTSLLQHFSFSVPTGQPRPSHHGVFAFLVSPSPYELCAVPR

[13] = plasma, ref Manini et al., 2015, Cox et al., 2019, cited from earlier work
[14] = Unbound fraction in incubation; assay type: in vitro ADME; details: human, HEK293 cell microsomes in buffer
[15] = IC50,u, rCYP2B6 microsomes, corrected for fu,inc
[16] = Ki,u, rCYP2B6 microsomes, corrected for fu,inc
[17] = IC50,u, rCYP2E1 microsomes, corrected for fu,inc
[18] = Ki,u, rCYP2E1 microsomes, corrected for fu,inc
[19] = IC50,u, HLM, corrected for fu,inc
[20] = Ki,u, HLM, corrected for fu,inc
[21] = IC50 (+), 30-min preincubation with NADPH
[22] = IC50 (−), 30-min preincubation without NADPH

Row | Compound | IC50 ([2]; IC50, rCYP2B6 microsomes) [nM] | IC50 [2, 15] [nM] | Ki ([2]; Ki, rCYP2B6 microsomes) [nM] | Ki [2, 16] [nM] | inhibition of activity against efavirenz ([2]; rCYP2B6 microsomes) | IC50 ([3]; IC50, rCYP2E1 microsomes) [nM] | IC50 [3, 17] [nM] | Ki ([3]; Ki, rCYP2E1 microsomes) [nM] | Ki [3, 18] [nM] | IC50 ([5]; IC50, HLM) [nM] | IC50 [5, 19] [nM] | Ki ([5]; Ki, HLM) [nM] | Ki [5, 20] [nM] | IC50 ([6]; IC50, HLM) [nM] | IC50 [6, 19] [nM] | Ki ([6]; Ki, HLM) [nM] | Ki [6, 20] [nM] | IC50 [8, 21] [nM] | IC50 [8, 22] [nM] | IC50 [9, 21] [nM] | also measured
1 | C=C(C)[C@@H]1CCC(C)=C[C@H]1c1c(O)cc(CCCCC)cc1O [CBD, cannabidiol] | 2100 ± 610 | 130 ± 38 | 1100 ± 240 | 68 ± 15 | Strong inhibition | 590 ± 130 | 37 ± 8.1 | 340 ± 98 | 21 ± 6.1 | 2700 ± 2400 | 260 ± 240 | 2200 ± 530 | 220 ± 52 | 1400 ± 250 | 140 ± 25 | 590 ± 230 | 58 ± 23 | 1300 ± 450 | 1900 ± 660 | 900 ± 400 | IC50 ([1]; IC50, rCYP1A2 microsomes): 2100 ± 930 nM; Ki ([1]; Ki): 1900 ± 1200 nM; Ki ([1]; Ki,u, corrected for fu,inc): 120 ± 74 nM; IC50 ([4]; IC50, HLM): 6800 ± 1500 nM; IC50 [4, 19]: 670 ± 150 nM; Ki ([4]; Ki, HLM): 2100 ± 1100 nM; Ki [4, 20]: 210 ± 110 nM; IC50 [7, 21]: 1800 ± 310 nM; IC50 [7, 22]: 2100 ± 250 nM; IC50 [9, 22]: 1100 ± 660 nM; fraction unbound at 30 min, 50 µM [10]: 0.098 ± 0.023; inhibition of activity against S-warfarin [11]: Strong inhibition; inhibition of activity against bufuralol [12]: Strong inhibition; Cmax ([13]; 20-mg inhaled dose of CBD): 10.3 nM; Cmax ([13]; oral dose of 800 mg of CBD): 703 nM
2 | CCCCCc1cc(O)c2c(c1)OC(C)(C)c1ccc(C)cc1-2 [CBN, cannabinol] | 2100 ± 870 | 630 ± 260 | 620 ± 190 | 190 ± 57 | Strong inhibition | 920 ± 100 | 280 ± 30 | 210 ± 97 | 63 ± 29 | 1700 ± 590 | 880 ± 310 | 1700 ± 420 | 880 ± 220 | 1100 ± 720 | 570 ± 370 | 330 ± 91 | 170 ± 47 | 2000 ± 700 | 2100 ± 830 | 730 ± 210 | decrease in activity ([2]; CYP2B6, 10 µM cannabinoid): 75%; decrease in activity ([3]; 1 µM cannabinoid): 77%; decrease in activity ([3]; 10 µM cannabinoid): 80%; IC50 [9, 22]: 870 ± 150 nM; fraction unbound at 30 min, 50 µM [10]: 0.052 ± 0.081; fraction unbound at 30 min, 50 µM [14]: 0.03 ± 0.052; decrease in activity ([11]; CYP2C9, 10 µM cannabinoid): 55%; inhibition of activity against S-warfarin [11]: Strong inhibition; inhibition of activity against bufuralol [12]: no inhibition was observed
